Assay results published in publication PMC2994747, “Molecular Characterization of c-Abl/c-Src Kinase Inhibitors Targeted against Murine Tumour Progenitor Cells that Express Stem Cell Markers” (PLoS ONE, 2010).
pKi: −log10 of the molar value.

Key:
all tested cell lines = test: Caspase-Glo 3/7 activity assay, all tested cell lines; assay type: cell-based; conditions: IC50 concentration, 24 h; vs vehicle
Procedure: (§1) According to instructions, Caspase-Glo® 3/7 assay (Promega GmbH, Mannheim, Germany) was used for monitoring caspase activity. Briefly, the same volume Caspase-Glo reagent as culture medium was added and incubated 1 h at room temperature. Luminescence was read with a Victor3 Wallac 1420 Multilabel counter (PerkinElmer, Rodgau, Germany). Background absorbance (medium only) was subtracted and the data given as percent of vehicle controls.

HepG2 = test: Western blot, semi-quantitative protein expression; assay type: cell-based, human
Procedure: For the Western Blot analysis, cells were rinsed and lysed as previously described. An amount of 25 µg protein was used for SDS-PAGE. Antibodies for c-Abl (sc-131), Actin (sc-1616), Cdc2-p34 (sc-8395), EPS15 (sc-1840), FAK (sc-558), c-Fos (sc-52), p38 (sc-7972), p53 (sc-6243) and STAT5 (sc-835x) were obtained from Santa Cruz (Santa Cruz Biotechnology, Heidelberg, Germany), while c-Src (2109) and phospho-Src Y416 (2101) were purchased from Cell Signaling (Cell Signaling Technology, Frankfurt a. M., Germany). The EGFR (06-847), phospho-EGFR Y992 (07-821) and phospho-EGFR Y1045 (04-284) stem from Upstate (Upstate, Schwalbach, Germany) and the hnRNP-K (A300-676A) from Bethyl Labs (Bethyl Laboratories, Montgomery, Texas, USA). Finally p73 (IMG-246) was supplied by Imgenex (Imgenex, Hamburg, Germany). Depending on the primary antibody the secondary antibodies were either horseradish peroxidase-conjugated anti-mouse (AP 160P), anti-rabbit (AP 132P) or anti-sheep (AP 147P) (Chemicon, Schwalbach, Germany).
Semi-quantitative analysis were carried out with Kodak 1D Image Analysis Software in reference to the vehicle treated control cells (see supplementary table S7).

BetaD5 = test: Caspase-Glo 3/7 activity assay; assay type: cell-based, mouse; conditions: IC50 concentration, 24 h, vs vehicle
Procedure: as §1

GammaA3 = test: Caspase-Glo 3/7 activity assay; assay type: cell-based, mouse; conditions: IC50 concentration
Procedure: as §1

c-Src = biological target: T1, c-Src (Homo sapiens, UniProt P12931); test: Src filter-binding kinase assay (Src Assay Kit); assay type: biochemical
T1 construct: His tag; purchased Upstate (Lake Placid, NY, USA)
Procedure: Baculovirus-produced recombinant purified his-tagged active against human Src and Abl were purchased from Upstate (Lake Placid, NY, USA).
Src activity was measured in a filter-binding assay using the Src Assay Kit (Upstate, Lake Placid, NY, USA), according to the manufacturer's protocol, using the specific Src peptide substrate [[…]] in the presence of 0.125 pmol of Src and 0.160 pmol of [γ-^32P]ATP. Abl activity was measured in a filter-binding assay using an Abl specific peptide substrate (Abtide, Upstate). Reaction conditions were (in a final volume of 10 µl): 25 mM Tris-HCl pH 7.5, 1 mM DTT, 0.012 µM [γ-^32P]ATP, 0.022 µM c-Abl. Reactions were incubated 10 min at 30°C.The samples (9 µl) were spotted on paper cellulose filters which were washed according to the manufacturer's protocol. Filter-bound radioactivity was measured by liquid scintillation with a Microbeta-Trilux apparatus (PerkinElmer, Waltham, MA, USA).
The ID50 were converted to Ki according to a competitive mechanism with respect to the substrate ATP. […] Since (i) the ATP concentration was limiting, i.e., [ATP], Km(ATP), and (ii) the enzyme concentration was not negligible with respect to the ATP concentration, the classical Cheng-Prusoff relationship was not applicable. Consequently, Ki values were calculated according to [drawing 3] (2) where S0 is the concentration of the competing substrate (ATP) and E0 is the concentration of the enzyme. Each experiment was done in triplicate and mean values were used for the interpolation. Curve fitting was performed with the program GraphPad Prism.

A2C12 = test: Whole genome expression analysis (Affymetrix microarray); assay type: cell-based, mouse; conditions: for Significantly differentially regulated genes, downregulated (number) / Significantly differentially regulated genes, upregulated (number): SAM FDR<0.01, FC>2
Procedure: The cells were harvested and RNA was isolated using RNeasy Mini Kit (Qiagen, Hilden, Germany) according to the instructions of the manufacturer. The isolated RNA (250 ng) was processed further using standard protocols as described recently with the exception of the 3′ IVT Express Kit (Affymetrix, High Wycombe, UK) that was utilized according to instructions. Quality control of cRNA was done with the Agilent 2100 Bioanalyzer (Agilent Tech according to manufacturer's protocols. Following fragmentation, cRNA of each sample was hybridized to Affymetrix GeneChip® Mouse Genome 430 2.0 or Human Genome U133 Plus 2.0 and scanned with an Affymetrix 3000 7G scanner.
The resultant data was normalized by Probe Logarithmic Intensity Error Estimation (PLIER) algorithm. Statistical analysis was carried out with the ArrayTrack software (National Center for Toxicological Research/FDA, Jefferson, AR, USA) using SAM algorithm.

tumour cell lines = test: Cell cycle analysis, statements over the cell line panel; assay type: cell-based; conditions: IC50 concentration, 96 h
Procedure: CycleTEST™ PLUS DNA Reagent Kit (Becton Dickinson GmbH, Heidelberg, Germany) for cell cycle analysis was used, according to the instructions of the manufacturer. Briefly, the cells were harvested with trypsin, washed with PBS, and resuspended in CycleTEST Buffer. The cells were centrifuged and resuspended in solution A. After incubation for 10 min at room temperature, solution B was added and incubated. After adding solution C, the samples were incubated at 4°C protected from light. The samples were stored on ice and protected from light until analysis by FACScan flow cytometer (Becton Dickinson GmbH, Heidelberg, Germany).

[1] = IC50 concentration, 96 h, vs control

T1 sequence (P12931 whole entry): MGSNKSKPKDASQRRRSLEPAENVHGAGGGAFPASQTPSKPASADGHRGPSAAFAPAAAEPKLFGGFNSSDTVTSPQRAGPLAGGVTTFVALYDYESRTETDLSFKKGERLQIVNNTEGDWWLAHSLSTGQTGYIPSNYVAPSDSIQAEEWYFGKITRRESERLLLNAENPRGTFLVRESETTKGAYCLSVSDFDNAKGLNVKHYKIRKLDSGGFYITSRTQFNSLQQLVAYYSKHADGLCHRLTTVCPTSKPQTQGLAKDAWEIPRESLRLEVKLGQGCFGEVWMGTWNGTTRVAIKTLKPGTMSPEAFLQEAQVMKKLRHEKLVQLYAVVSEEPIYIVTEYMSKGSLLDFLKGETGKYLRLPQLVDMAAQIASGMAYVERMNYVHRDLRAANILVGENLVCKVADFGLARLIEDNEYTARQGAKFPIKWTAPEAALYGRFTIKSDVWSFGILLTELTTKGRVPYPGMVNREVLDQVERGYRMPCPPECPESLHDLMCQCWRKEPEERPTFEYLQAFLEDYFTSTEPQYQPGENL

## CSc1nc(NCCc2ccc(Cl)cc2)c2cnn(CC(Cl)c3ccccc3)c2n1 (stereo not shown) [Si57]
All tested cell lines
  Change of caspase-3/7 activity in all cell lines: declined

## Clc1cccc(Nc2nc(SC3CCCC3)nc3c2cnn3CC(Cl)c2ccccc2)c1 (stereo not shown) [Si135]
HepG2
  Actin protein expression: 68
  Cdc2-p34 protein expression: 9
  EGFR Y992-p protein expression: 8
  EGFR Y1045-p protein expression: 28
  EGFR protein expression: 261
  EPS15 protein expression: 48
  FAK protein expression: 130
  STAT5 protein expression: 61
  c-Abl protein expression: 34
  c-Fos protein expression: 43
  c-Src Y416-p protein expression: 16
  c-Src protein expression: 78
  hnRNP-K protein expression: 70
  p38 protein expression: 51
  p53 protein expression: 19
BetaD5
  Increase in caspase-3/7 activity: 10 fold
GammaA3; 24 h, vs vehicle
  Increase in caspase-3/7 activity: 10 fold
GammaA3; 96 h
  Increase in caspase-3/7 activity: about 30 % of control
c-Src
  Inhibition of c-Src kinase activity: no inhibition
A2C12; IC50 concentration, 96 h
  Significantly differentially regulated genes, downregulated (number): 33
  Significantly differentially regulated genes, upregulated (number): 118
A2C12; [1]
  Actg2 gene expression: -4.51 log2 of fold change
  Ctgf gene expression: 1.05 log2 of fold change
  Dusp3 gene expression: 1.06 log2 of fold change
  Gadd45a gene expression: 1.81 log2 of fold change
  Il6 gene expression: -4.69 log2 of fold change
  Mmp13 gene expression: 2.95 log2 of fold change
  Mtm1 gene expression: 1.00 log2 of fold change
  Ptn gene expression: -5.35 log2 of fold change
  Ptprg gene expression: 1.05 log2 of fold change

## Fc1ccccc1CNc1ncnc2c1cnn2CC(Cl)c1ccc(Br)cc1 (stereo not shown) [Si162]
HepG2
  Actin protein expression: 77
  Cdc2-p34 protein expression: 12
  EGFR Y992-p protein expression: 20
  EGFR Y1045-p protein expression: 60
  EGFR protein expression: 535
  EPS15 protein expression: 56
  FAK protein expression: 96
  STAT5 protein expression: 35
  c-Abl protein expression: 46
  c-Fos protein expression: 58
  c-Src Y416-p protein expression: 82
  c-Src protein expression: 86
  hnRNP-K protein expression: 59
  p38 protein expression: 48
  p53 protein expression: 73
All tested cell lines
  Change of caspase-3/7 activity in all cell lines: increased
Tumour cell lines
  Cell cycle arrest (phase, in words): arrest in G2/M
c-Src; isolated Src, calculated from ID50, ATP-competitive, E0 0.005, S0 0.012 µM
  pKi: 7.38
A2C12
  Actg2 (actin, gamma 2, smooth muscle, enteric) regulated gene, Si162 vs Ktr FC: -4.94
  Ccl5 (chemokine (C-C motif) ligand 5) regulated gene, Si162 vs Ktr FC: 2.52
  Ccna2 (cyclin A2) regulated gene, Si162 vs Ktr FC: -4.48
  Ccnb2 (cyclin B2) regulated gene, Si162 vs Ktr FC: -4.51
  Cenpa (centromere protein A) regulated gene, Si162 vs Ktr FC: -4.34
  Ctsb (cathepsin B) regulated gene, Si162 vs Ktr FC: 1.13
  Cxcl12 (chemokine (C-X-C motif) ligand 12) regulated gene, Si162 vs Ktr FC: -1.05
  Errfi1 (ERBB receptor feedback inhibitor 1) regulated gene, Si162 vs Ktr FC: -4.38
  Gadd45a (growth arrest and DNA-damage-inducible, alpha) regulated gene, Si162 vs Ktr FC: 1.40
  Itga5 (integrin, alpha 5 (fibronectin receptor, alpha polypeptide)) regulated gene, Si162 vs Ktr FC: -4.81
  Mdm2 (Mdm2 p53 binding protein homolog (mouse)) regulated gene, Si162 vs Ktr FC: 1.88
  Mmp3 (matrix metallopeptidase 3 (stromelysin 1, progelatinase)) regulated gene, Si162 vs Ktr FC: 3.28
  Mmp13 (matrix metallopeptidase 13 (collagenase 3)) regulated gene, Si162 vs Ktr FC: 3.90
  Nfib (nuclear factor I/B) regulated gene, Si162 vs Ktr FC: -4.56
  Ogn (osteoglycin) regulated gene, Si162 vs Ktr FC: -5.77
  Pdgfrb (platelet-derived growth factor receptor, beta polypeptide) regulated gene, Si162 vs Ktr FC: -4.68
  Plk1 (polo-like kinase 1 (Drosophila)) regulated gene, Si162 vs Ktr FC: -4.48
  Ptn (pleiotrophin) regulated gene, Si162 vs Ktr FC: -4.92
  Sfrp1 (secreted frizzled-related protein 1) regulated gene, Si162 vs Ktr FC: 1.12
  Spp1 (secreted phosphoprotein 1) regulated gene, Si162 vs Ktr FC: 1.21
  Srf (serum response factor) regulated gene, Si162 vs Ktr FC: -4.68
  Tgfb1i1 (transforming growth factor beta 1 induced transcript 1) regulated gene, Si162 vs Ktr FC: -4.59
  Tgfb3 (transforming growth factor, beta 3) regulated gene, Si162 vs Ktr FC: -4.49
  Tlr4 (toll-like receptor 4) regulated gene, Si162 vs Ktr FC: 1.09
  Tnc (tenascin C) regulated gene, Si162 vs Ktr FC: -5.20
  Tp53 (tumor protein p53) regulated gene, Si162 vs Ktr FC: -4.50
  Zyx (zyxin) regulated gene, Si162 vs Ktr FC: -5.47
A2C12; IC50 concentration, 96 h
  Significantly regulated genes, total (number): > 500
  Significantly differentially regulated genes, downregulated (number): 212
  Significantly differentially regulated genes, upregulated (number): 357
